Experimental data from the supplement of paper PMC10733146.

What was measured:
Assay in all cases: viability relative to DMSO control (fraction); higher = less drug effect (more viable cells)
Settings in all cases: 48 h
Palbociclib = compound: CC(=O)c1c(C)c2cnc(Nc3ccc(N4CCNCC4)cn3)nc2n(C2CCCC2)c1=O [Palbociclib]
Procedure, shortened: (§1)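 Viability is given as CellTiter-Glo luminescence relative to the median of 16 inner DMSO wells. Fresh or cryopreserved primary mononuclear tumour cells from blood, bone marrow (both Ficoll-isolated) or processed lymph node were plated at 4 × 10^4 cells per well in 384-well plates against five pre-plated compound concentrations, one well each. Incubation lasted 48 h at 37 °C and 5% CO2 in RPMI-1640 with penicillin/streptomycin, L-glutamine and human serum.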

SGC 0946 = compound: CC(C)N(CCCNC(=O)Nc1ccc(C(C)(C)C)cc1)C[C@H]1O[C@@H](n2cc(Br)c3c(N)ncnc32)[C@H](O)[C@@H]1O [SGC 0946]
Procedure, shortened: as §1

Barasertib = compound: CCN(CCCOc1ccc2c(Nc3cc(CC(=O)Nc4cccc(F)c4)[nH]n3)ncnc2c1)CCOP(=O)(O)O [Barasertib]
Procedure, shortened: as §1

EPZ-6438 = compound: CCN(c1cc(-c2ccc(CN3CCOCC3)cc2)cc(C(=O)NCc2c(C)cc(C)[nH]c2=O)c1C)C1CCOCC1 [EPZ-6438]
Procedure, shortened: as §1

I-BET-762 = compound: CCNC(=O)C[C@@H]1N=C(c2ccc(Cl)cc2)c2cc(OC)ccc2-n2c(C)nnc21 [I-BET-762]
Procedure, shortened: as §1

CPI-169 = compound: CCS(=O)(=O)N1CCC([C@@H](C)n2c(C)c(C(=O)NCc3c(OC)cc(C)[nH]c3=O)c3ccccc32)CC1 [CPI-169]
Procedure, shortened: as §1

Roscovitine = compound: CC[C@H](CO)Nc1nc(NCc2ccccc2)c2ncn(C(C)C)c2n1 [Roscovitine]
Procedure, shortened: as §1

Etoposide = compound: COc1cc([C@@H]2c3cc4c(cc3[C@@H](O[C@@H]3O[C@@H]5CO[C@@H](C)O[C@H]5[C@H](O)[C@H]3O)[C@H]3COC(=O)[C@H]23)OCO4)cc(OC)c1O [Etoposide]
Procedure, shortened: as §1

Tofacitinib = compound: C[C@@H]1CCN(C(=O)CC#N)C[C@@H]1N(C)c1ncnc2[nH]ccc12 [Tofacitinib]
Procedure, shortened: as §1

[1] = compound: C[C@H]1C[C@@H](n2c(Nc3ccc(OC(F)(F)F)cc3)nc3cc(CCC(=O)O)ccc32)CC(C)(C)C1
Procedure, shortened: as §1

Pomalidomide = compound: Nc1cccc2c1C(=O)N(C1CCC(=O)NC1=O)C2=O [Pomalidomide]
Procedure, shortened: as §1

[2] = compound: O=C(Nc1ccc2[nH]nc(-c3ccncc3)c2c1)[C@@H]1CCN(CC(=O)N2CCN(c3ccc(-c4ncccn4)cc3)CC2)C1
Procedure, shortened: as §1

Chlorambucil = compound: O=C(O)CCCc1ccc(N(CCCl)CCCl)cc1 [Chlorambucil]
Procedure, shortened: as §1

Thalidomide = compound: O=C1CCC(N2C(=O)c3ccccc3C2=O)C(=O)N1 [Thalidomide]
Procedure, shortened: as §1

Entospletinib = compound: c1cn2cc(-c3ccc4cn[nH]c4c3)nc(Nc3ccc(N4CCOCC4)cc3)c2n1 [Entospletinib]
Procedure, shortened: as §1

Test System: primary AML patient cells (S091)
- viability (Palbociclib; 0.024 µM): 1.15
- viability (Palbociclib; 0.12 µM): 0.927
- viability (Palbociclib; 0.6 µM): 0.738
- viability (Palbociclib; 3 µM): 0.661
- viability (Palbociclib; 15 µM): 0.271
- viability (SGC 0946; 0.024 µM): 0.9
- viability (SGC 0946; 0.12 µM): 1.55
- viability (SGC 0946; 0.6 µM): 0.88
- viability (SGC 0946; 3 µM): 0.959
- viability (SGC 0946; 15 µM): 0.555
- viability (Barasertib; 0.0008 µM): 1.09
- viability (Barasertib; 0.004 µM): 1.05
- viability (Barasertib; 0.02 µM): 0.754
- viability (Barasertib; 0.1 µM): 0.798
- viability (Barasertib; 0.5 µM): 0.874
- viability (EPZ-6438; 0.024 µM): 1.01
- viability (EPZ-6438; 0.12 µM): 1.05
- viability (EPZ-6438; 0.6 µM): 1.02
- viability (EPZ-6438; 3 µM): 0.938
- viability (EPZ-6438; 15 µM): 0.706
- viability (I-BET-762; 0.008 µM): 0.966
- viability (I-BET-762; 0.04 µM): 0.826
- viability (I-BET-762; 0.2 µM): 0.567
- viability (I-BET-762; 1 µM): 0.378
- viability (I-BET-762; 5 µM): 0.24
- viability (CPI-169; 0.024 µM): 0.849
- viability (CPI-169; 0.12 µM): 1.65
- viability (CPI-169; 0.6 µM): 1.01
- viability (CPI-169; 3 µM): 0.893
- viability (CPI-169; 15 µM): 0.802
- viability (Roscovitine; 0.032 µM): 0.838
- viability (Roscovitine; 0.16 µM): 1.16
- viability (Roscovitine; 0.8 µM): 0.82
- viability (Roscovitine; 4 µM): 1.02
- viability (Roscovitine; 20 µM): 0.776
- viability (Etoposide; 0.032 µM): 0.972
- viability (Etoposide; 0.16 µM): 0.939
- viability (Etoposide; 0.8 µM): 0.756
- viability (Etoposide; 4 µM): 0.585
- viability (Etoposide; 20 µM): 0.533
- viability (Tofacitinib; 0.024 µM): 0.946
- viability (Tofacitinib; 0.12 µM): 0.947
- viability (Tofacitinib; 0.6 µM): 0.898
- viability (Tofacitinib; 3 µM): 0.903
- viability (Tofacitinib; 15 µM): 1.03
- viability ([1]; 0.024 µM): 1.08
- viability ([1]; 0.12 µM): 0.891
- viability ([1]; 0.6 µM): 0.776
- viability ([1]; 3 µM): 1.11
- viability ([1]; 15 µM): 0.965
- viability (Pomalidomide; 0.0032 µM): 0.99
- viability (Pomalidomide; 0.016 µM): 1.01
- viability (Pomalidomide; 0.08 µM): 1.04
- viability (Pomalidomide; 0.4 µM): 1.03
- viability (Pomalidomide; 2 µM): 1.04
- viability ([2]; 0.008 µM): 0.827
- viability ([2]; 0.04 µM): 0.652
- viability ([2]; 0.2 µM): 0.45
- viability ([2]; 1 µM): 0.337
- viability ([2]; 5 µM): 0.255
- viability (Chlorambucil; 0.032 µM): 0.955
- viability (Chlorambucil; 0.16 µM): 0.986
- viability (Chlorambucil; 0.8 µM): 0.901
- viability (Chlorambucil; 4 µM): 0.704
- viability (Chlorambucil; 20 µM): 0.51
- viability (Thalidomide; 0.032 µM): 1.38
- viability (Thalidomide; 0.16 µM): 0.939
- viability (Thalidomide; 0.8 µM): 0.92
- viability (Thalidomide; 4 µM): 1.02
- viability (Thalidomide; 20 µM): 0.937
- viability (Entospletinib; 0.024 µM): 0.928
- viability (Entospletinib; 0.12 µM): 0.961
- viability (Entospletinib; 0.6 µM): 0.925
- viability (Entospletinib; 3 µM): 0.937
- viability (Entospletinib; 15 µM): 0.967

Test System: primary B-PLL patient cells (S016)
- viability (Palbociclib; 0.024 µM): 0.982
- viability (Palbociclib; 0.12 µM): 0.886
- viability (Palbociclib; 0.6 µM): 0.89
- viability (Palbociclib; 3 µM): 0.625
- viability (Palbociclib; 15 µM): 0.457
- viability (SGC 0946; 0.024 µM): 1
- viability (SGC 0946; 0.12 µM): 1.04
- viability (SGC 0946; 0.6 µM): 0.946
- viability (SGC 0946; 3 µM): 0.922
- viability (SGC 0946; 15 µM): 0.435
- viability (Barasertib; 0.0008 µM): 0.883
- viability (Barasertib; 0.004 µM): 0.984
- viability (Barasertib; 0.02 µM): 0.962
- viability (Barasertib; 0.1 µM): 1.01
- viability (Barasertib; 0.5 µM): 1.03
- viability (EPZ-6438; 0.024 µM): 1.21
- viability (EPZ-6438; 0.12 µM): 1.14
- viability (EPZ-6438; 0.6 µM): 1.1
- viability (EPZ-6438; 3 µM): 1.01
- viability (EPZ-6438; 15 µM): 1.06
- viability (I-BET-762; 0.008 µM): 1.01
- viability (I-BET-762; 0.04 µM): 0.976
- viability (I-BET-762; 0.2 µM): 0.992
- viability (I-BET-762; 1 µM): 0.918
- viability (I-BET-762; 5 µM): 0.639
- viability (CPI-169; 0.024 µM): 0.946
- viability (CPI-169; 0.12 µM): 1.02
- viability (CPI-169; 0.6 µM): 1.04
- viability (CPI-169; 3 µM): 1.01
- viability (CPI-169; 15 µM): 1.2
- viability (Roscovitine; 0.032 µM): 0.927
- viability (Roscovitine; 0.16 µM): 1.05
- viability (Roscovitine; 0.8 µM): 1.02
- viability (Roscovitine; 4 µM): 1.23
- viability (Roscovitine; 20 µM): 1.09
- viability (Etoposide; 0.032 µM): 1.14
- viability (Etoposide; 0.16 µM): 0.886
- viability (Etoposide; 0.8 µM): 0.762
- viability (Etoposide; 4 µM): 0.362
- viability (Etoposide; 20 µM): 0.0933
- viability (Tofacitinib; 0.024 µM): 0.953
- viability (Tofacitinib; 0.12 µM): 0.991
- viability (Tofacitinib; 0.6 µM): 0.994
- viability (Tofacitinib; 3 µM): 1.06
- viability (Tofacitinib; 15 µM): 1.03
- viability ([1]; 0.024 µM): 0.932
- viability ([1]; 0.12 µM): 1.22
- viability ([1]; 0.6 µM): 1.08
- viability ([1]; 3 µM): 0.967
- viability ([1]; 15 µM): 1.03
- viability (Pomalidomide; 0.0032 µM): 1.17
- viability (Pomalidomide; 0.016 µM): 1.3
- viability (Pomalidomide; 0.08 µM): 1.15
- viability (Pomalidomide; 0.4 µM): 0.926
- viability (Pomalidomide; 2 µM): 0.962
- viability ([2]; 0.008 µM): 1.02
- viability ([2]; 0.04 µM): 0.919
- viability ([2]; 0.2 µM): 0.953
- viability ([2]; 1 µM): 0.94
- viability ([2]; 5 µM): 0.869
- viability (Chlorambucil; 0.032 µM): 0.939
- viability (Chlorambucil; 0.16 µM): 0.916
- viability (Chlorambucil; 0.8 µM): 0.933
- viability (Chlorambucil; 4 µM): 0.601
- viability (Chlorambucil; 20 µM): 0.088
- viability (Thalidomide; 0.032 µM): 0.947
- viability (Thalidomide; 0.16 µM): 0.931
- viability (Thalidomide; 0.8 µM): 1.04
- viability (Thalidomide; 4 µM): 1.05
- viability (Thalidomide; 20 µM): 1.04
- viability (Entospletinib; 0.024 µM): 0.927
- viability (Entospletinib; 0.12 µM): 0.919
- viability (Entospletinib; 0.6 µM): 0.934
- viability (Entospletinib; 3 µM): 0.947
- viability (Entospletinib; 15 µM): 0.864
